This is an account of results in patent publication US10716830B2, “ERBB4 activator screening assay” (Children's Hospital Los Angeles, priority 2011, dated 2020).

Holding throughout (format): cell-based, mouse
For one experiment, the system named is ERK MAPK. Briefly: ERK MAPK phosphorylation in whole cell lysates by western blot. As to conditions: YAMC-B4 cells; NRG4 100 ng/ml, 10 min. From the text:
(§1) Cell lysates were extracted in modified RIPA buffer as previously described (Frey, M. R., Dise, R. S., Edelblum, K. L., and Polk, D. B. (2006) Embo J 25, 5683-5692), cleared by centrifugation, and boiled in Laemmli sample buffer. Samples were separated on SDS-polyacrylamide gels (6-10% as appropriate), blotted on PVDF membranes, and subjected to quantitative immunoblot using the Li-Cor Odyssey infrared detection system. Equal loading was monitored by immunoblots for actin and at least one additional protein.
(§2) To identify signaling pathways which could be involved in NRG4-stimulated cell survival, we exposed YAMC-B4 cells to NRG4 or EGF and prepared whole cell lysates for western blot analysis. […] Furthermore, COX-2 expression, which is induced by either HRG-1β or EGF after 6 h exposure, and is required for cell survival induced by ErbB4-EGFR dimers (Frey, M. R., Hilliard, V. C., Mullane, M. T., and Polk, D. B. (2010) Laboratory Investigation 90, 1415-1424), was not induced by NRG4. Thus, NRG4 promotes cell survival through pathways at least partly distinct from those activated by other ligands.

For experiment [1], the system named is EGFR, ErbB2, ErbB3, and ErbB4. The experiment in a line: ErbB receptor phosphorylation by western blot with phospho-specific antibodies. As to conditions: YAMC-B4 cells (human ErbB4 construct); 10 min; HRG-1β 100 ng/ml, NRG4, EGF 10 ng/ml.
Text: Conditionally immortalized, non-transformed young adult mouse colon (YAMC) epithelial cells were provided by Dr. Robert Whitehead (Whitehead, R. H., VanEeden, P. E., Noble, M. D., Ataliotis, P., and Jat, P. S. (1993) Proc Natl Acad Sci USA 90, 587-591). These cells express low levels of endogenous ErbB4; YAMC-B4 cells expressing a human ErbB4 construct were generated as previously described (Frey, M. R., Edelblum, K. L., Mullane, M. T., Liang, D., and Polk, D. B. (2009) Gastroenterology 136, 217-226). […]
as §1
Phosphorylation of EGFR, ErbB2, ErbB3, and ErbB4 was determined by western blot analysis of cell lysates using phospho-specific antibodies. […]

The next experiment has as its system Akt. Briefly: Akt phosphorylation in whole cell lysates by western blot. As to conditions: YAMC-B4 cells; NRG4 100 ng/ml, 10 min.
Text: as §1, §2

Experiment [2] has as its system YAMC-B4 cells. Briefly: EdU proliferation assay. As to conditions: 24 h stimulation. As for the experimental part: Proliferative index in fixed colon specimens was assessed by immunohistochemical stain for Ki-67. In vitro, cells were exposed to vehicle or growth factors for 24 h, then labeled with 5-ethynyl-2-deoxyuridine (EdU) for 2 h and fixed. Nuclei were marked with DAPI, and incorporated EdU was detected using a Click-iT EdU kit (Invitrogen).
Most ErbB ligands stimulate multiple cellular processes, including proliferation and migration, in colon epithelial cells (Frey, M. R., Golovin, A., and Polk, D. B. (2004) J Biol Chem 279, 44513-44521). To determine if NRG4 is similarly broad in its cellular effects, we subjected YAMC-B4 cells to proliferation assays in the presence of NRG4. […] In vivo, the number of Ki67-positive nuclei per crypt in PBS vs. NRG4-injected mice was not altered 24 h post-injection (FIG. 4B).

Another experiment relates to COX-2. The experiment in a line: COX-2 expression in YAMC-B4 cells. The settings on record: 6 h exposure. As for the experimental part: as §2
The test system of experiment [3] is YAMC-B4 cells. Briefly: Cell migration/restitution (modified scratch) assay. The settings on record: 8 h. As for the experimental part: Cells grown on fibronectin-coated plates were subjected to multiple circular wounds with a rotating silicone probe as previously described (Corredor, J., Yan, F., Shen, C. C., Tong, W., John, S. K., Wilson, G., Whitehead, R., and Polk, D. B. (2003) American journal of physiology. Cell physiology 284, C953-961). Cultures were photographed immediately and 8 h after wounding; % closure was determined by measuring wounds in Image.
To test the potential effect of NRG4-ErbB4 signaling on cell motility, we used a modified scratch assay for restitution/migration (Corredor, J., Yan, F., Shen, C. C., Tong, W., John, S. K., Wilson, G., Whitehead, R., and Polk, D. B. (2003) American journal of physiology. Cell physiology 284, C953-961). Over an 8 h period, NRG4 had no effect on the rate at which YAMC-B4 cells moved into the denuded area of a culture plate (FIG. 4C), while in contrast EGF caused a 54% increase in migration over control.

Turning to “epidermal growth factor (NSYPGCPSSYDGYCLNGGVCMHIESLDSYTCNCVIGYSGDRCQTRDLRWWELR; Epidermal growth factor; UniProt P01132 977-1029, looked up) [EGF, Recombinant murine EGF from Peprotech; positive control for cell stimulation, reference compound]”, the “phosphorylation of ERK MAPK” value in the experiment on ERK MAPK is reported as “activated both cascades”. For the same substance, in experiment [1], the “phosphorylation of EGFR, ErbB2, ErbB3, and ErbB4” value is given as “stimulated phosphorylation of multiple ErbBs”. The “phosphorylation of Akt” value with Akt was “activated both cascades”. The “stimulation of proliferation over control (EdU)” value in the experiment on YAMC-B4 cells [2] was found to be 31.5%. Also, in the experiment with COX-2, the COX-2 expression entry is on record as “induced”. In addition, the “increase in migration over control” value in the experiment with YAMC-B4 cells [3] came to 54%.
